Assay results reported in US12258328B2, “6-membered heteroaryl-containing aminopyridine compounds as EGFR inhibitors” (YUHAN CORPORATION, priority 2021, dated 2025).
Read-outs that look alike come from different tables or passages of the source.

How the values were obtained:
EGFR L858R/T790M/C797S = EGFR L858R/T790M/C797S (Homo sapiens, UniProt P00533, C797S/L858R/T790M); assay: Biochemical EGFR kinase assay (Lance Ultra TR-FRET), triple mutant L858R/T790M/C797S
Protocol: (§1) Biochemical EGFR kinase assays were conducted using Lance Ultra time-resolved fluorescence resonance energy transfer (TR-FRET) technology from Perkin-Elmer. Compounds of the invention were initially diluted to 20 mM in 100% DMSO for storage and made into kinase buffer solution to create a compound concentration ranging from 0.003 μM and 10 μM.
(§2) Each kinase reactions were incubated at room temperature for 1 hour and then stopped by the addition of 4 μL of stop solution (10 mM EDTA). The specific Europium-labeled-anti-phosphopeptide antibody (PerkinElmer, AD0069) diluted in LANCE detection buffer was then added to a final concentration of 2 nM. After 60 minutes incubation at room temperature the LANCE signal was measured on an EnVision Multilabel Reader (Perkin-Elmer). Excitation wavelength was set at 320 nm and emission monitored at 615 nm (donor) and 665 nm (acceptor). The IC50 values were determined using GraphPad prism software (GraphPad Software, Inc., San Diego, CA, USA).

EGFR L858R/C797S = EGFR L858R/C797S (Homo sapiens, UniProt P00533, C797S/L858R); assay: Biochemical EGFR kinase assay (Lance Ultra TR-FRET), double mutant L858R/C797S
Chain of EGFR L858R/C797S (P00533 25-1210 C797S/L858R): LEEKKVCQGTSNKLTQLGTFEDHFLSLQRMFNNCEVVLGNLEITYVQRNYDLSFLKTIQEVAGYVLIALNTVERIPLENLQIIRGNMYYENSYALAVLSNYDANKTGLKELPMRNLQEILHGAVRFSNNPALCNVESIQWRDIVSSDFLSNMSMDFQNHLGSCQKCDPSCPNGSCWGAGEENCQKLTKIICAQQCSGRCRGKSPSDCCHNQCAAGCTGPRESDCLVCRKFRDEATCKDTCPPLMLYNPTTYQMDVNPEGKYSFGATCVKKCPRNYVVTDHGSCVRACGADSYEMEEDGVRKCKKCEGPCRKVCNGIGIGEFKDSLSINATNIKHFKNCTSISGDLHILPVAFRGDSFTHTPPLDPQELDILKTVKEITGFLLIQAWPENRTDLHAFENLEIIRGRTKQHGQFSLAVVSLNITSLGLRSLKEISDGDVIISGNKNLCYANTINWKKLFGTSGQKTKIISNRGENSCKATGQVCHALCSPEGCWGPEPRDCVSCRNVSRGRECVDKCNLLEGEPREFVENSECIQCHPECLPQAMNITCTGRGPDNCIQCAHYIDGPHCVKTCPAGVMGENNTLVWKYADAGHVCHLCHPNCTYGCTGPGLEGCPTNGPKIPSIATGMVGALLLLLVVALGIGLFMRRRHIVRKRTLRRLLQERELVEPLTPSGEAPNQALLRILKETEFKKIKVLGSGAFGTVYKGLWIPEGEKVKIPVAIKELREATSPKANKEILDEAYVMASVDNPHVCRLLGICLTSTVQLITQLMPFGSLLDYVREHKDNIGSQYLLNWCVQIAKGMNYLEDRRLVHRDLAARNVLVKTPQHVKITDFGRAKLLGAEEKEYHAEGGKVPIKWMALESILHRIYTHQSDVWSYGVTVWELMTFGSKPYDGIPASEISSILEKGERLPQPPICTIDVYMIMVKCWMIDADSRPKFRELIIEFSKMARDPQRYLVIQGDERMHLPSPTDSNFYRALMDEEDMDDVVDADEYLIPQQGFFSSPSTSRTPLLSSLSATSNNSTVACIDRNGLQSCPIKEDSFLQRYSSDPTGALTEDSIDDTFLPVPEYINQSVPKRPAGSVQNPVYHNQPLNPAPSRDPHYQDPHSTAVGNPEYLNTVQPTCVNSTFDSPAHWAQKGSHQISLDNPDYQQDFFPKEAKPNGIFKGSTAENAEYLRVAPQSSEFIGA
Protocol: as §1, §2

EGFR del19/T790M/C797S = EGFR del19/T790M/C797S (Homo sapiens, UniProt P00533, C797S/DEL746-750/T790M); assay: Biochemical EGFR kinase assay (Lance Ultra TR-FRET), triple mutant del19/T790M/C797S
Protocol: as §1, §2

EGFR del19/C797S = EGFR del19/C797S (Homo sapiens, UniProt P00533, C797S/DEL746-750); assay: Biochemical EGFR kinase assay (Lance Ultra TR-FRET), double mutant del19/C797S
Chain of EGFR del19/C797S (P00533 with tags, fused parts or gaps DEL746-750/C797S): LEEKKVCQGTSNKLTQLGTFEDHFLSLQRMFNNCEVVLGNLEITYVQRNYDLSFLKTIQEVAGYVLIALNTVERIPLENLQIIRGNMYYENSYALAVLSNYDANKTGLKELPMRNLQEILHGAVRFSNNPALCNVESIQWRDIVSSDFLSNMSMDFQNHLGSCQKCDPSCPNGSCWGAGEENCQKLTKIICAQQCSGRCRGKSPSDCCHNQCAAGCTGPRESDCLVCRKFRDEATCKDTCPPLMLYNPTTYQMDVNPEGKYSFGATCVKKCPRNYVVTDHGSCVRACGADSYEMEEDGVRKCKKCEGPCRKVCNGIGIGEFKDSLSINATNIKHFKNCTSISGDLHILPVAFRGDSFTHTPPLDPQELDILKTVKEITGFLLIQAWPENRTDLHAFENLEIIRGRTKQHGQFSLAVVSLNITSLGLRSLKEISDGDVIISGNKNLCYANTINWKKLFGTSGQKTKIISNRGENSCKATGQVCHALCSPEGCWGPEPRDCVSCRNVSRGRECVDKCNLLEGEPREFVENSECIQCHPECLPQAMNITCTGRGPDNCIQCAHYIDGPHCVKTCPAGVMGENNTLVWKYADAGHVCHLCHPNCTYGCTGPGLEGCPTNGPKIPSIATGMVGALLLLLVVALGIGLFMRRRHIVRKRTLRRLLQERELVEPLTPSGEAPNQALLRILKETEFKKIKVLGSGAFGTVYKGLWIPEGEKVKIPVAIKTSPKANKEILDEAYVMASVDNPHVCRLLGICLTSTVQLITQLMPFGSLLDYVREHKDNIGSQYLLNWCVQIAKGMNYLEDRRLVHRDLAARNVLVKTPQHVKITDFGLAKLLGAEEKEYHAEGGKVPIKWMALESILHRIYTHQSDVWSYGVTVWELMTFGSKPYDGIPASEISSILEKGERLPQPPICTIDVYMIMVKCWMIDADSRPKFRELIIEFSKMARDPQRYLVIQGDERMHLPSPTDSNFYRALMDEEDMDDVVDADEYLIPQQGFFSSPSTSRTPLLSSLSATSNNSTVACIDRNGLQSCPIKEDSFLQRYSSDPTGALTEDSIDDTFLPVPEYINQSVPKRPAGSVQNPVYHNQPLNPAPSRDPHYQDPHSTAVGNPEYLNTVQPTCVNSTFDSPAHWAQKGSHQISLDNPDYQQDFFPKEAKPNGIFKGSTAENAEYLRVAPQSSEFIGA
Protocol: as §1, §2

EGFR wildtype = EGFR wildtype (Homo sapiens, UniProt P00533); assay: Biochemical EGFR kinase assay (Lance Ultra TR-FRET), wildtype
Chain of EGFR wildtype (P00533 25-1210): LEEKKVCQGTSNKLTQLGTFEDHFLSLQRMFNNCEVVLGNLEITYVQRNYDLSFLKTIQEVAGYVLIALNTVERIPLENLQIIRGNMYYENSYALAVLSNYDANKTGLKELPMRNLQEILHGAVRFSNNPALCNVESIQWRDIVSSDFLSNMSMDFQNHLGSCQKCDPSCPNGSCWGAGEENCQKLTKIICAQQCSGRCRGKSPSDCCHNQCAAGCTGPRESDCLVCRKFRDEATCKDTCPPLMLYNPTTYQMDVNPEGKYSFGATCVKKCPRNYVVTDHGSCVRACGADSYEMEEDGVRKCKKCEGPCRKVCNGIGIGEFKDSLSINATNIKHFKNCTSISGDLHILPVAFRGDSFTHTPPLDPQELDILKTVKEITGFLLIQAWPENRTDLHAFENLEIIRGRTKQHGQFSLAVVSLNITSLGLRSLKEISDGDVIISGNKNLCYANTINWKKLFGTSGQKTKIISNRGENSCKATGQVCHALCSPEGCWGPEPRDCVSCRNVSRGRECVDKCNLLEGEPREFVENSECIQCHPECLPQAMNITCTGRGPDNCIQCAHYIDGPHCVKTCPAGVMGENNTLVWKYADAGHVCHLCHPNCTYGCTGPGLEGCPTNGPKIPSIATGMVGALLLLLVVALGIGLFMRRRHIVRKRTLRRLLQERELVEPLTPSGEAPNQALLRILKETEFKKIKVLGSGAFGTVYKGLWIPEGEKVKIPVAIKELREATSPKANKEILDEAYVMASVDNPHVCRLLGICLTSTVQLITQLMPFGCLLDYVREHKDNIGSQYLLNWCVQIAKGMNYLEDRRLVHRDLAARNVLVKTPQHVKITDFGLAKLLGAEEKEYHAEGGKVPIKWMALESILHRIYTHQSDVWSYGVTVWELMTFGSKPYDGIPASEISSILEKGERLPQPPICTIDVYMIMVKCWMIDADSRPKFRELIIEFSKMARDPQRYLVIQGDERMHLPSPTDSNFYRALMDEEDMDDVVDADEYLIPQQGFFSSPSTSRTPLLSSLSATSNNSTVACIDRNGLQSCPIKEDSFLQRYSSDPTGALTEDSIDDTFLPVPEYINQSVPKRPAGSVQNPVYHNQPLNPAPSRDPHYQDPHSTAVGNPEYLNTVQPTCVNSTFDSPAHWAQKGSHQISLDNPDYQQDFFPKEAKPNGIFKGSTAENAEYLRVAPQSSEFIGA
Protocol: as §1, §2

[1] = IC50 L858R/T790M/C797S (nM) 100 μM ATP, 100 μM ATP
[2] = IC50 L858R/C797S (nM) 100 μM ATP, 100 μM ATP
[3] = IC50 del19/T790M/C797S (nM) 100 μM ATP, 100 μM ATP
[4] = IC50 del19/C797S (nM) 100 μM ATP, 100 μM ATP
[5] = IC50 WT (nM) 100 μM ATP, 100 μM ATP
[6] = ATP at Km, read-out: IC50 L858R/T790M/C797S, Km ATP
[7] = IC50 L858R/T790M/C797S, 100 μM ATP
[8] = ATP at Km, read-out: IC50 L858R/C797S, Km ATP
[9] = ATP at Km, read-out: IC50 del19/T790M/C797S, Km ATP
[10] = IC50 del19/T790M/C797S, 100 μM ATP
[11] = ATP at Km, read-out: IC50 del19/C797S, Km ATP
[12] = ATP at Km, read-out: IC50 WT, Km ATP
[13] = Km ATP, read-out: IC50 L858R/C797S (nM) Km ATP
[14] = Km ATP, read-out: IC50 del19/T790M/C797S (nM) Km ATP
[15] = Km ATP, read-out: IC50 del19/C797S (nM) Km ATP
[16] = Km ATP, read-out: IC50 WT (nM) Km ATP
[17] = Km ATP, read-out: IC50 L858R/T790M/C797S (nM) Km ATP

Chain of EGFR L858R/T790M/C797S (P00533 25-1210 T790M/C797S/L858R): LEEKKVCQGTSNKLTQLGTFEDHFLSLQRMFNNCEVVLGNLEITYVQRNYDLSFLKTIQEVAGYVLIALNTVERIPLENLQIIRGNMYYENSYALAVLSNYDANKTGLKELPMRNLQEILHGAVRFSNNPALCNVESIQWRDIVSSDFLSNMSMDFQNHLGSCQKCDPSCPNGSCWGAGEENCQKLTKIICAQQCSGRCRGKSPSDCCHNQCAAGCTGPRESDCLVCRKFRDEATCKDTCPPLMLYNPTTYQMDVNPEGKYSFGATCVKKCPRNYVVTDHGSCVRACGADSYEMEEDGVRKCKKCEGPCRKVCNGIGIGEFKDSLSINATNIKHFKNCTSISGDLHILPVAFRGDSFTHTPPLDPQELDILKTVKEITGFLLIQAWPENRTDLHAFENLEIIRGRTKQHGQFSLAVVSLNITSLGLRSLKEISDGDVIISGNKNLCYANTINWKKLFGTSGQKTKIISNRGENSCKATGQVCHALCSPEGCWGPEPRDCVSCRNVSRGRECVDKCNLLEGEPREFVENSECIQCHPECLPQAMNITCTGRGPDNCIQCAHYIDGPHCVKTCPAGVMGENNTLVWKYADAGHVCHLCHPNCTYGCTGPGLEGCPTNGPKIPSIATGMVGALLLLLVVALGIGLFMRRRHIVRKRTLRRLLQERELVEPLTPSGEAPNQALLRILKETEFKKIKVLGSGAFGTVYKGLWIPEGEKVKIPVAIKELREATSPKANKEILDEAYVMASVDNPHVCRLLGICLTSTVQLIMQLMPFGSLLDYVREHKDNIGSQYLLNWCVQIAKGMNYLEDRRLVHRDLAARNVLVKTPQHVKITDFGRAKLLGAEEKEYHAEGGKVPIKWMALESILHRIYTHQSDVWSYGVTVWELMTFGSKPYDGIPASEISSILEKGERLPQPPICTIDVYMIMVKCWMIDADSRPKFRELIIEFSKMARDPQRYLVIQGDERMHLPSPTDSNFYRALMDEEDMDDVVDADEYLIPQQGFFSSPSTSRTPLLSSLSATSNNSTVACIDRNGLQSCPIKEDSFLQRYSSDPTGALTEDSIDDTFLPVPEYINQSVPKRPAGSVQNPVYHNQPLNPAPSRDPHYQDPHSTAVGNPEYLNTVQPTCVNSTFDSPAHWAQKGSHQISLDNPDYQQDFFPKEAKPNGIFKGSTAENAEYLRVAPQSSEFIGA

IC50 (EGFR L858R/T790M/C797S; [1]) [nM] | IC50 (EGFR L858R/C797S; [2]) [nM] | IC50 (EGFR del19/T790M/C797S; [3]) [nM] | IC50 (EGFR del19/C797S; [4]) [nM] | IC50 (EGFR wildtype; [5]) [nM] | IC50 (EGFR L858R/T790M/C797S; [6]) [nM] | IC50 (EGFR L858R/T790M/C797S; [7]) [nM] | IC50 (EGFR L858R/C797S; [8]) [nM] | IC50 (EGFR L858R/C797S; IC50 L858R/C797S, 100 μM ATP) [nM] | IC50 (EGFR del19/T790M/C797S; [9]) [nM] | IC50 (EGFR del19/T790M/C797S; [10]) [nM] | IC50 (EGFR del19/C797S; [11]) [nM] | IC50 (EGFR wildtype; [12]) [nM] | IC50 (EGFR wildtype; IC50 WT, 100 μM ATP) [nM] | IC50 (EGFR del19/C797S; IC50 del19/C797S, 100 μM ATP) [nM] | IC50 (EGFR L858R/C797S; [13]) [nM] | IC50 (EGFR del19/T790M/C797S; [14]) [nM] | IC50 (EGFR del19/C797S; [15]) [nM] | IC50 (EGFR wildtype; [16]) [nM] | IC50 (EGFR L858R/T790M/C797S; [17]) [nM] | Structure (SMILES)
0.4 | 26.2 | 0.2 | 1.8 | > 10000 |  |  |  |  |  |  |  |  |  |  |  |  |  |  |  | C[C@]1(O)CC[C@@H](Nc2cc(Nc3ccnc(-c4cnn(S(=O)(=O)C5CC5)c4)n3)ncc2-c2cccc(CN3CCOCC3)n2)CC1 [Example 29, (1s,4s)-4-((6′-((2-(1-(Cyclopropylsulfonyl)-1H-pyrazol-4-yl)pyrimidin-4-yl)amino)-6-(morpholinomethyl)-[2,3′-bipyridin]-4′-yl)amino)-1-methylcyclohexan-1-ol]
 |  |  |  |  | 0.3 | 0.5 | 1 | 5.7 | 1.1 | 1.4 | 1.1 | 2.1 | 767 |  |  |  |  |  |  | CN(C)C[C@H]1CC[C@@H](Nc2cc(Nc3ccnc(-c4cnn(S(=O)(=O)C5CC5)c4)n3)ncc2-c2ccc(CC(F)(F)F)cn2)CC1 [Example 221, N^6′-(2-(1-(Cyclopropylsulfonyl)-1H-pyrazol-4-yl)pyrimidin-4-yl)-N^4′-((1s,4s)-4-((dimethylamino)methyl)cyclohexyl)-5-(2,2,2-trifluoroethyl)-[2,3′-bipyridine]-4′,6′-diamine]
0.1 | 0.9 | 0.1 | 0.2 | 745 |  |  |  |  |  |  |  |  |  |  |  |  |  |  |  | CN1CCN(Cc2cnc(-c3cnc(Nc4ccnc(-c5cnn(S(=O)(=O)C6CC6)c5)n4)cc3N[C@H]3CC[C@@](C)(O)CC3)cn2)CC1 [Example 62, (1s,4s)-4-((2-((2-(1-(Cyclopropylsulfonyl)-1H-pyrazol-4-yl)pyrimidin-4-yl)amino)-5-(5-((4-methylpiperazin-1-yl)methyl)pyrazin-2-yl)pyridin-4-yl)amino)-1-methylcyclohexan-1-ol]
0.4 | 1 | 1.7 | 1.1 | 754 |  |  |  |  |  |  |  |  |  |  | 0.3 | 0.7 | 0.5 | 1.9 |  | CN1CCN(Cc2ccnc(-c3cnc(Nc4ccnc(-c5cnn(S(=O)(=O)C6CC6)c5)n4)cc3N[C@H]3CC[C@@](C)(O)CC3)c2)CC1 [Example 55, (1s,4s)-4-((6′-((2-(1-(Cyclopropylsulfonyl)-1H-pyrazol-4-yl)pyrimidin-4-yl)amino)-4-((4-methylpiperazin-1-yl)methyl)-[2,3′-bipyridin]-4′-yl)amino)-1-methylcyclohexan-1-ol]
 |  |  |  |  | 0.1 | 0.2 | 0.2 | 0.6 | 0.1 | 0.2 | 0.3 | 0.6 | 134 | 0.3 |  |  |  |  |  | O=C(c1ccc(-c2cnc(Nc3ccnc(-c4cnn(S(=O)(=O)C5CC5)c4)n3)cc2N[C@H]2CC[C@@H](CO)CC2)nc1)N1CCOCC1 [Example 200, (6′-((2-(1-(Cyclopropylsulfonyl)-1H-pyrazol-4-yl)pyrimidin-4-yl)amino)-4′-(((1s,4s)-4-(hydroxymethyl)cyclohexyl)amino)-[2,3′-bipyridin]-5-yl)(morpholino)methanone]
0.2 | 0.4 | 0.5 | 0.7 | 198 |  |  |  |  |  |  |  |  |  |  | 0.03 | 0.3 | 0.2 | 0.7 | 0.2 | CC(C)(O)c1ccnc(-c2cnc(Nc3ccnc(-c4cnn(S(=O)(=O)C5CC5)c4)n3)cc2N[C@H]2CC[C@@H](CO)CC2)c1 [Example 111, 2-(6′-((2-(1-(Cyclopropylsulfonyl)-1H-pyrazol-4-yl)pyrimidin-4-yl)amino)-4′-(((1s,4s)-4-(hydroxymethyl)cyclohexyl)amino)-[2,3′-bipyridin]-4-yl)propan-2-ol]
 |  |  |  |  | 0.4 | 1.1 | 12.4 | 45.2 | 3 | 7.2 | 6.9 | 42 | > 10000 | 21.1 |  |  |  |  |  | O=S(=O)(C1CC1)n1cc(-c2nccc(Nc3cc(N[C@H]4CC[C@@H](CO)CC4)c(-c4cccc(CC(F)(F)F)n4)cn3)n2)cn1 [Example 246, ((1s,4s)-4-((6′-((2-(1-(Cyclopropylsulfonyl)-1H-pyrazol-4-yl)pyrimidin-4-yl)amino)-6-(2,2,2-trifluoroethyl)-[2,3′-bipyridin]-4′-yl)amino)cyclohexyl)methanol]

Further lines, the compound ahead of its results:

Structure (SMILES) | IC50 (EGFR L858R/T790M/C797S; [1]) [nM] | IC50 (EGFR L858R/C797S; [2]) [nM] | IC50 (EGFR del19/T790M/C797S; [3]) [nM] | IC50 (EGFR del19/C797S; [4]) [nM] | IC50 (EGFR wildtype; [5]) [nM] | IC50 (EGFR L858R/T790M/C797S; [6]) [nM] | IC50 (EGFR L858R/T790M/C797S; [7]) [nM] | IC50 (EGFR L858R/C797S; [8]) [nM] | IC50 (EGFR L858R/C797S; IC50 L858R/C797S, 100 μM ATP) [nM] | IC50 (EGFR del19/T790M/C797S; [9]) [nM] | IC50 (EGFR del19/T790M/C797S; [10]) [nM] | IC50 (EGFR del19/C797S; [11]) [nM] | IC50 (EGFR wildtype; [12]) [nM] | IC50 (EGFR wildtype; IC50 WT, 100 μM ATP) [nM] | IC50 (EGFR del19/C797S; IC50 del19/C797S, 100 μM ATP) [nM] | IC50 (EGFR L858R/C797S; [13]) [nM] | IC50 (EGFR del19/T790M/C797S; [14]) [nM] | IC50 (EGFR del19/C797S; [15]) [nM] | IC50 (EGFR wildtype; [16]) [nM] | IC50 (EGFR L858R/T790M/C797S; [17]) [nM]
CC1(O)CCC(Nc2cc(Nc3ccnc(-c4cnn(S(=O)(=O)C5CC5)c4)n3)ncc2-c2cc(NC3CC(O)C3)ccn2)CC1 (centres unmarked) [Example 283, (1s,4s)-4-((6′-((2-(1-(Cyclopropylsulfonyl)-1H-pyrazol-4-yl)pyrimidin-4-yl)amino)-4-((3-hydroxycyclobutyl)amino)-[2,3′-bipyridin]-4′-yl)amino)-1-methylcyclohexan-1-ol] |  |  |  |  |  |  | 0.4 |  | 2.3 |  | 0.1 |  |  | 1970 | 0.6 |  |  |  |  | 
CN(C)CCOc1cnc(-c2cnc(Nc3ccnc(-c4cnn(S(=O)(=O)C5CC5)c4)n3)cc2NC2CCC(C)(O)CC2)cn1 (centres unmarked) [Example 115, (1s,4s)-4-((2-((2-(1-(Cyclopropylsulfonyl)-1H-pyrazol-4-yl)pyrimidin-4-yl)amino)-5-(5-(2-(dimethylamino)ethoxy)pyrazin-2-yl)pyridin-4-yl)amino)-1-methylcyclohexan-1-ol] | 0.1 | 0.5 | 0.4 | 0.8 | > 10000 |  |  |  |  |  |  |  |  |  |  | 0.1 | 0.1 | 0.4 | 1.8 | 0.1
CN1CCN(Cc2ccc(-c3cnc(Nc4ccnc(-c5cnn(S(=O)(=O)C6CC6)c5)n4)cc3N3CCC(C)(CO)CC3)nc2)CC1 [Example 1, (1-(6′-((2-(1-(Cyclopropylsulfonyl)-1H-pyrazol-4-yl)pyrimidin-4-yl)amino)-5-((4-methylpiperazin-1-yl)methyl)-[2,3′-bipyridin]-4′-yl)-4-methylpiperidin-4-yl)methanol] | 1.3 | 223 | 0.8 | 52.3 | > 10000 |  |  |  |  |  |  |  |  |  |  | 10.5 | 1.2 | 37.5 | 212 | 0.4
CN1CCC(Oc2ccc(-c3cnc(Nc4ccnc(-c5cnc6c(c5)CCCO6)n4)cc3N[C@H]3CC[C@@](C)(O)CC3)nc2)CC1 [Example 142, (1s,4s)-4-((6′-((2-(3,4-Dihydro-2H-pyrano[2,3-b]pyridin-6-yl)pyrimidin-4-yl)amino)-5-((1-methylpiperidin-4-yl)oxy)-[2,3′-bipyridin]-4′-yl)amino)-1-methylcyclohexan-1-ol] |  |  |  |  |  |  |  |  |  |  |  |  |  |  |  | 0.8 | 0.01 | 2 | 17.1 | 0.03
CN(C)CCOc1ccnc(-c2cnc(Nc3ccnc(-c4cnn(S(=O)(=O)C5CC5)c4)n3)cc2N[C@H]2CC[C@@](C)(O)CC2)c1 [Example 287, (1s,4s)-4-((6′-((2-(1-(Cyclopropylsulfonyl)-1H-pyrazol-4-yl)pyrimidin-4-yl)amino)-4-(2-(dimethylamino)ethoxy)-[2,3′-bipyridin]-4′-yl)amino)-1-methylcyclohexan-1-ol] |  |  |  |  |  | 0.1 | 0.1 | 0.8 | 44 | 0.2 | 0.3 | 0.4 | 3 | 5140 | 1 |  |  |  |  | 
